In patent US20170205398A1, “DRUG SCREENING AND POTENCY ASSAYS” (REGENMED (CAYMAN) LTD., priority 2011, published 2017):

Test system: γ-glutamyl transpeptidase (GGT)
Assay: Amphotericin B knockdown of SRC/NKA ex vivo GGT (western blot band density, semilogarithmic dose response)
Assay type: cell-based, human
From the text: Morphological, genotypic, phenotypic and functional changes to 2D cultured SRC were monitored to 72hrs following exposure to escalating doses of the well known nephrotoxin, Amphotericin B (Amp B). The TC50 was estimated by Amp B knockdown of SRC/NKA ex vivo GGT activity.
GGT inhibition detected by western blot is shown in below in Table 16.1.
Results from semilogarithmic dose response analysis are shown below in Table 16.2.

Structure (SMILES): C[C@@H]1[C@H](O)[C@@H](C)/C=C/C=C/C=C/C=C/C=C/C=C/C=C/[C@H](O[C@@H]2O[C@H](C)[C@@H](O)[C@H](N)[C@@H]2O)C[C@@H]2O[C@](O)(C[C@@H](O)C[C@@H](O)[C@H](O)CC[C@@H](O)C[C@@H](O)CC(=O)O[C@H]1C)C[C@H](O)[C@H]2C(=O)O [Amphotericin B]
- IC50 (2D cultured SRC, exposure to 72 hrs, sigmoidal fit Log(inhibitor) vs response, read-out: IC50 of inhibitory effect on SRC-mediated GGT): 32.3 µM
- LOGIC50 (Log(inhibitor) vs response fit, 2D cultured SRC): 1.510
- GGT western blot band density (response) ([c] 0.01): 18764
- inv response (inverse of band density) ([c] 0.01): 5.329E−05
- GGT western blot band density (response) ([c] 0.1): 18959
- inv response (inverse of band density) ([c] 0.1): 5.275E−05
- GGT western blot band density (response) ([c] 1): 17112
- inv response (inverse of band density) ([c] 1): 5.844E−05
- GGT western blot band density (response) ([c] 10): 16611
- inv response (inverse of band density) ([c] 10): 6.02E−05
- GGT western blot band density (response) ([c] 100): 8227
- inv response (inverse of band density) ([c] 100): 0.0001216
- GGT western blot band density (response) ([c] 1000): 8000
- inv response (inverse of band density) ([c] 1000): 0.000125
- GGT western blot band density (response) ([c] 10000): 7800
- inv response (inverse of band density) ([c] 10000): 0.0001282
